The text below walks through data of patent US20140057895A1, “INDAZOLE- AND PYRROLOPYRIDINE-DERIVATIVE AND PHARMACEUTICAL USE THEREOF” (priority 2011, published 2014).

Assay [1] concerns the target T1, Human 5-HT4 receptor (5-HT4b) (Homo sapiens, UniProt Q13639).
T1 construct: expressed in transfected cells; membrane preparation
As to the kind of experiment: Test Example 3: Human 5-HT4 receptor binding assay, membranes of CHO-K1 cells stably expressing 5-HT4b receptors (Table 99). The following applies: mean value of each group. As for the experimental part:
To an assay tube were added 0.1 nM [^3H]-GR113808 {chemical name: [1-[2-(methylsulfonylamino) ethyl]-4-piperidinyl]methyl 1-methylindole-3-carboxylate}, receptor membrane preparations, and Hepes buffer (50 mM, pH 7.4, 4° C., 1 ml) containing test compounds or 30 μM serotonin; and the mixture was incubated at 37° C. for 30 minutes. On quenching the reaction, the mixture was rapidly filtered on whatman GF/B filter, which was presoaked in 0.1% polyethyleneimine for 1 hour, by using Brandel cell Harvester, and washed with ice-cooled 50 mM Tris-HCl (pH 7.7, 4 ml) three times. To the filter after filtration was added a liquid scintillator (Ecoscint), and then a radioactivity was determined by a liquid scintillation counter.
50% Inhibition concentrations (IC50) were determined from inhibition rates of test compounds to specific bindings which were obtained by subtracting nonspecific bindings from total binding amounts of [^3H]-GR113808.
Human 5-HT4 receptor membrane preparations were prepared from CHO-K^1 cells which stably express 5-HT4b receptors, and human 5-HT4 receptor binding assay was carried out in a similar manner as in the guinea pig 5-HT4 receptor binding assay. The following tables show results of serotonin 4 (5-HT4) receptor binding assay. In the following tables, the compounds used in the test are shown in numbers which correspond to the Example numbers above where the preparations of the compounds are described.

For a further assay, the target named is T2, human 5-HT4b receptor (Homo sapiens, UniProt Q13639).
T2 construct: expressed in transfected cells; host or cells: CHO cells (G418 selection)
Nature of the assay: Test Example 4: Serotonin 4 (5-HT4) receptor agonist activity assay, cAMP HTRF in CHO cells (Table 100). Type of assay: cell-based. The following applies: mean value; for Emax: CHO, 0.25 h, intrinsic activity, maximal activity of 5-HT defined as 100%, read-out: IA (%); for EC50: concentration showing 50% of IA. The gist of the method: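 CHO cells expressing human 5-HT4b receptor, serum-reduced for 1–2 h, were suspended in Hanks/HEPES pH 7.4 and exposed to compound for 15 min at 31° C. cAMP detected by HTRF (cryptate/d2, 1 h RT, 620/665 nm). EC50 and intrinsic activity relative to maximal 5-HT response (10^−11 to 10^−7 M) set at 100%.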
A general note: In TR-FRET formats the signal depends on donor and acceptor labels being close together.

T1 sequence (Q13639 whole entry): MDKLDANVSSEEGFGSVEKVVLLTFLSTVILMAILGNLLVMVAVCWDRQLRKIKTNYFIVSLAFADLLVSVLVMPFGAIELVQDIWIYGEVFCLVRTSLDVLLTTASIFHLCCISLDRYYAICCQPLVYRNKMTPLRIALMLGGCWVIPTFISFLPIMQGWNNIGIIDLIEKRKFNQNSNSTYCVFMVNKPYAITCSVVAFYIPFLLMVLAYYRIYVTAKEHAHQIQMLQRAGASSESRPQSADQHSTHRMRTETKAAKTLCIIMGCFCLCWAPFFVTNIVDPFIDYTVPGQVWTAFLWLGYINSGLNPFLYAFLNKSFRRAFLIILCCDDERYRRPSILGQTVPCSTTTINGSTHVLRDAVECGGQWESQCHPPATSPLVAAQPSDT
T2 sequence (Q13639 whole entry): as above

As to `CCc1nn(-c2noc(C3CCN(C4(C)CCN(S(C)(=O)=O)CC4)CC3)n2)c2c(F)cccc12` [Example 492, 4-[3-(3-ethyl-7-fluoro-1H-indazol-1-yl)-1,2,4-oxadiazol-5-yl]-4′-methyl-1′-(methylsulfonyl)-1,4′-bipiperidine], in assay [1], the 50% inhibitory concentration (IC50) (as a rule, the concentration that gives 50% inhibition) is under 20 nM. In addition, on human 5-HT4b receptor, the Emax came to 78% and the EC50 (usually the midpoint of the concentration-response curve) stood at 2.9 nM.
As to `CCc1nn(-c2noc(C3CCN(C[C@@H]4CCN(C(=O)CO)C4)CC3)n2)c2c(F)cccc12` [Example 582, 1-[(3S)-3-({4-[3-(3-ethyl-7-fluoro-1H-indazol-1-yl)-1,2,4-oxadiazol-5-yl]piperidin-1-yl}methyl)pyrrolidin-1-yl]-2-hydroxyethanone], in assay [1], the IC50 was under 20 nM. Moreover, on human 5-HT4b receptor, the Emax amounted to 91% and the concentration giving a half-maximal response (EC50) amounted to 3.7 nM.
The like results for `CC(=O)NCCCN[C@H]1C[C@@H](c2nc(-n3nc(C(C)C)c4cccc(F)c43)no2)C1` [Example 566] were, in that order, under 20 nM, 90% and 3.1 nM.
As for `CC(C)c1nn(-c2noc(C[C@@H]3CCN(C[C@@H]4CCN(C(=O)CO)C4)C3)n2)c2c(F)cccc12` [Example 549, 1-[(3S)-3-{[(3S)-3-({3-[7-fluoro-3-(propan-2-yl)-1H-indazol-1-yl]-1,2,4-oxadiazol-5-yl}methyl)pyrrolidin-1-yl]methyl}pyrrolidin-1-yl]-2-hydroxyethanone], in assay [1], the IC50 is under 20 nM. At human 5-HT4b receptor, the Emax came to 91% and the EC50 came to 5.6 nM.
In assay [1], `CCc1nn(-c2noc(C3CCN(C4(C)CCN(C(C)=O)CC4)CC3)n2)c2c(F)cccc12` [Example 491, 1-{4-[3-(3-ethyl-7-fluoro-1H-indazol-1-yl)-1,2,4-oxadiazol-5-yl]-4′-methyl-1,4′-bipiperidin-1′-yl}ethanone] showed an IC50 of under 20 nM. Moreover, on human 5-HT4b receptor, the Emax was found to be 91% and the midpoint of the response, the EC50, lay at 4.4 nM.
The like results for `CC(=O)NCCN(C1CCOCC1)C1CC(c2nc(-n3nc(C(C)C)c4cccc(F)c43)no2)C1` (stereo not drawn) [Example 611, N-{2-[(3-{3-[7-fluoro-3-(propan-2-yl)-1H-indazol-1-yl]-1,2,4-oxadiazol-5-yl}cyclobutyl)(tetrahydro-2H-pyran-4-yl)amino]ethyl}acetamide] were, in that order, 95.9 nM, 94% and 42.2 nM.
The like results for `CC(C)c1nn(-c2noc(C[C@H]3CCN(CC4CN(S(C)(=O)=O)C4)C3)n2)c2c(F)cccc12` [Example 502, 7-fluoro-1-(5-{[(3R)-1-{[1-(methylsulfonyl)azetidin-3-yl]methyl}pyrrolidin-3-yl]methyl}-1,2,4-oxadiazol-3-yl)-3-(propan-2-yl)-1H-indazole] were, in that order, under 20 nM, 70% and 3.5 nM.
On to `CC(C)c1nn(-c2noc(C3CCC(NCCC4CCCOC4)CC3)n2)c2c(F)cccc12` (stereo not drawn) [Example 619, 4-{3-[7-fluoro-3-(propan-2-yl)-1H-indazol-1-yl]-1,2,4-oxadiazol-5-yl}-N-[2-(tetrahydro-2H-pyran-3-yl)ethyl]cyclohexanamine], for which the half-inhibitory concentration (IC50) in assay [1] was 39.2 nM.
Regarding `Cc1cccc2c1c(C(C)C)nn2-c1noc(C2CCN(C3CCC3)CC2)n1` [Example 423, 1-[5-(1-cyclobutylpiperidin-4-yl)-1,2,4-oxadiazol-3-yl]-4-methyl-3-(propan-2-yl)-1H-indazole], in assay [1], the 50% inhibitory concentration (IC50) turned out to be 136 nM.
Still for that read-out and setting: under `CC(C)c1nn(-c2noc(C3CC(NCCC4CCCOC4)C3)n2)c2c(F)cccc12` (stereo not drawn) [Example 604, 3-{3-[7-fluoro-3-(propan-2-yl)-1H-indazol-1-yl]-1,2,4-oxadiazol-5-yl}-N-[2-(tetrahydro-2H-pyran-3-yl)ethyl]cyclobutanamine] stands under 20 nM.
